According to patent publication US11266614B2, “Oral formulations of belinostat” (ONXEO, priority 2017, dated 2022):
Values belong to the compound of their own block, whether it stands above or below them.

Columns and labels:
[1] = above pH 8.5; cited from earlier work
[2] = vorinostat: phase I trial; cited from earlier work
[3] = cited from earlier work
[4] = cited from earlier work; remark: listed apart in the source
[5] = Glass transition temperature (Tg) by modulated DSC; assay type: physicochemical
Experimental: To also evaluate the physical stability of prepared ASDs, glass transition temperature (Tg) was determined at two relative humidity (RH) conditions (<5% and 75% RH) by modulated differential scanning calorimetry (m-DSC).
DSC curves were recorded using a TA Instruments Q2000 differential scanning calorimeter. Samples were heated under nitrogen flow from 0 to 200° C. at 2.5° C.±1.5° C./min in non-hermetically sealed pan for <5% RH analysis or from 0 to 130° C. at 2.5° C.±1.5° C./80 sec in hermetically sealed pan for 75% RH analysis.

[6] = Non-sink in vitro dissolution, micro-centrifuge method; assay type: physicochemical; conditions: PBS pH 6.5 with 0.5 wt % SIF; for Dissolution C90 min / Dissolution C20 h: 37° C., theoretical maximum 1000 μg/mL; for Dissolution C90 min: 90 min; for Dissolution C20 h: 1200 min
Experimental: Dissolution of spray dried materials of belinostat has been tested in vitro, in non-sink conditions, in order to evaluate the ability of formulations to achieve supersaturation and sustainability of supersaturation relative to crystalline drug.
Dissolution was assessed using micro-centrifuge method (Curatolo et al. Pharm Res 2009:26(6):1419-1431). Micro-centrifuge dissolution method consisted of introducing a 1.8 mg equivalent belinostat as ASD into an empty micro-centrifuge tube and add 1.8 mL total volume dissolution media (PBS pH 6.5 with 0.5 wt % Simulated Intestinal Fluid) to achieve a theoretical maximum belinostat concentration in solution of 1000 μg/mL. For some formulations (marked with* in Table 2), ASDs were first exposed in pH 2.0 gastric media at 2000 μg/mL for 30 min before to be transferred to the PBS pH 6.5 with 0.5 wt % Simulated Intestinal Fluid at a final theoretical maximum belinostat concentration in solution of 1000 μg/mL. Tubes were placed at 37° C. Aliquot (50 μL) were taken from supernatant after centrifugation 15 800 g for 1 min at each time point (5, 10, 20, 45, 90 and 1200 minutes). Between each time point, solids in the centrifuge tube were resuspended by mixing the sample continuously on the vortex mixer for 30 s and the tube was placed back at 37° C. Aliquot samples were diluted using acetonitrile and drug concentration was determined by HPLC.

[7] = Chemical stability: impurities by HPLC, initial and after 1 week 40° C./75% RH; assay type: physicochemical
Experimental: After a secondary drying overnight at 40° C. 15% RH in a convection tray dryer, the different ASD were characterized for physical stability (XRPD, Tg versus Relative humidity), chemical stability (impurity by HPLC after 1 week 40° C./75% RH) and in vitro dissolution.
Purity of each batch of ASD was tested by HPLC analysis on sample just after preparation and after one week storage in accelerated stability conditions: 40° C./75% RH open or closed. In closed conditions, ASDs were placed in closed bottles (heat induction seal) containing 1 g SORB-IT desiccant canister.
HPLC-analysis was performed using an Agilent 1100 or 1200 system with binary or quaternary pump, a diode array detector, a refrigerated autosampler, and column oven. Data analysis was performed using Empower 3 software. The column used was Zorbax Bonus RP 4.6×150 mm (3.5 μm). Acetonitrile/20 mM Potassium phosphate buffer pH 3.0 was used as mobile phase with a gradient concentration at a flow rate of 1.0 mL/min; UV detection was used at a wavelength of 220 nm.

[8] = Amorphous or crystalline state by powder X-ray diffraction (XRPD); assay type: physicochemical; conditions: for XRPD 1 week 40/75 open: 1 week 40° C. 75% RH open; for XRPD initial: freshly prepared
Experimental: Amorphous or crystalline state of freshly prepared spray dried dispersions described in Example 2 was assessed by Powder X-ray diffraction (XRPD). The same analysis was repeated after 1 week storage at 40° C. and 75% relative humidity in open conditions. XRPD patterns were obtained with Rigaku MiniFlex 600 X-Ray diffractometer operating with a copper anode ([…]; Kα2=1.54439 Å), generator set at 45 kV and 15 mA, in 2-theta range 3-40° 2θ, scanned at a rate of 2.5° 2θ per minute in continuous scanning mode, and using a D/teX Ultra high speed detector.

[9] = 1 week 40° C./75% RH closed, desiccant

SMILES: O=C(/C=C/c1cccc(S(=O)(=O)Nc2ccccc2)c1)NO [belinostat, (2E)-N-hydroxy-3-[3-(phenylsulfamoyl)phenyl]prop-2-enamide]
chemical stability in liquid solution [1]: poor chemical stability

SMILES: CC(O)C(=O)O.Cc1[nH]c2ccccc2c1CCNCc1ccc(/C=C/C(=O)NO)cc1 [panobinostat lactate]
absolute oral bioavailability [2]: approximately 21%
permeability (in words) [3]: highly permeable
aqueous solubility, maximum ([4]; pH 2 or 3): ~5000 µg/mL
aqueous solubility at neutral pH ([4]; pH 6.8): 0.3 mg/mL
aqueous solubility ([4]; pH 7.6): 70 µg/mL
solubility in water (in words) ([4]; water): slightly soluble in water

Tg <5% RH ([5]; <5% RH, m-DSC): 53 °C
glass transition temperature (Tg) ([5]; amorphous belinostat without polymer): about 53 °C
Observation during dissolution [6]: Recrystallization
Dissolution C90 min [6]: 363 µg/mL
Dissolution C20 h [6]: 387 µg/mL
Bel Acid, 1 week 40/75 closed [7, 9]: Bel Acid 0.10 area %
Bel Dimer, 1 week 40/75 closed [7, 9]: Bel Dimer 1.34 area %
Total imp, 1 week 40/75 closed [7, 9]: Total imp 1.49 area %
Bel Acid, 1 week 40/75 open ([7]; 1 week 40° C./75% RH open): Bel Acid 0.10 area %
Bel Dimer, 1 week 40/75 open ([7]; 1 week 40° C./75% RH open): Bel Dimer 0.25 area %
Observation on storage 1 week 40/75 open ([7]; 1 week 40° C./75% RH open): Recrystallization
Total imp, 1 week 40/75 open ([7]; 1 week 40° C./75% RH open): Total imp 0.42 area %
Bel Acid, Initial ([7]; just after preparation): Bel Acid 0.05 area %
Bel Dimer, Initial ([7]; just after preparation): Bel Dimer 0.48 area %
Total imp, Initial ([7]; just after preparation): Total imp 0.59 area %
XRPD 1 week 40/75 open [8]: Crystalline
XRPD initial [8]: Partially crystalline
physical state upon storage (in words) ([8]; upon storage): undergoes recrystallization upon storage
SMILES: O=C(/C=C/c1cccc(S(=O)(=O)Nc2ccccc2)c1)NO [Formulation 2]

SMILES: O=C(CCCCCCC(=O)Nc1ccccc1)NO [Vorinostat]
absolute oral bioavailability [2]: 43%
permeability (in words) [3]: moderate permeability

Dissolution C90 min [6]: 270 µg/mL
Dissolution C20 h [6]: 310 µg/mL
Bel Acid, Initial ([7]; just after preparation): Bel Acid <0.05 area %
Total imp, Initial ([7]; just after preparation): Total imp <0.05 area %
XRPD 1 week 40/75 open [8]: Crystalline
XRPD initial [8]: Crystalline
SMILES: O=C(/C=C/c1cccc(S(=O)(=O)Nc2ccccc2)c1)NO [Formulation 1]
